Data: PMC7669869, “AdipoR1/AdipoR2 dual agonist recovers nonalcoholic steatohepatitis and related fibrosis via endoplasmic reticulum-mitochondria axis” (Nature Communications, 2020)
Non-standard residues stand in square brackets, D forms with d. Residues, ends and D or L forms follow the SMILES beside them. Nva = CCC[C@H](N)C(=O)O

Legend:
[1] = Serum stability assay (RP-HPLC); format: in vitro ADME; conditions: for Fraction of peptide remaining, Supplementary Figure 5: mouse serum
Protocol: The stability of candidate peptides was investigated following procedure. […] Ice-cold acetonitrile was added to terminate the reaction. Vortex and stand for 1 min, deionized water with 1% TFA was added to the mixture to further terminate the reaction. Mixtures were then centrifuged (13,000g, 10 min) to obtain the supernatant. RP-HPLC-MS was applied to analysis the content of candidate peptides. The serum stability of candidate peptides was represented as the retention rate of each peptide.

HFD induced NASH mice [2] = assay: HFD mice: fasting blood glucose, fasting insulin and adiponectin (ELISA); format: in vivo, mouse; conditions: JT003 500 μg kg−1 i.p. daily 4 weeks, in words
Protocol: The NASH model was conducted with feeding a HFD for 16 weeks combine with a MCD diet (Methionine/Choline Deficient Diet, Medicience, China) in the last 4 weeks. Mice administered a MCS diet (Methionine/Choline Sufficient Diet, Medicience, China) serves as control group. NAFLD or NASH mice treated with JT003 for 4 weeks were used to evaluate the pharmacological effects (n = 6; 500 μg kg^−1; daily intraperitoneal injection). Food and water were provided ad libitum. The body weight of mice was examined every 3 days. The diet was renewed every 7 days. JT003 was diluted in PBS.
(§1) Fasting blood glucose was measured using OneTouch UltraVue Blood Glucose Meter and test strips (Johnson&Johnson, USA) from tail nicks. After HFD fed for 14 weeks and JT003 treated for 2 weeks, oral glucose tolerance tests were performed on 8 h fasted mice. 0.5 g ml^−1 D-glucose solution (Sigma-Aldrich, USA) were oral injected to mice (2 g kg^−1 of bodyweight), blood glucose level was recorded at baseline, 15, 30, 60, 120 min
The levels of ALT, AST, TC and TG in serum were determined using certain commercial assay kits (Nanjing Jiancheng Bioengineering Institute, China). Fasting adiponectin and insulin were quantified in plasma samples using corresponding commercially available Elisa kits (Cloud-Clone Crop, USA).

HFD induced NASH mice [3] = assay: HFD mice: oral glucose tolerance test (OGTT); format: in vivo, mouse; conditions: JT003 500 μg kg−1, in words
Protocol: as §1

[4] = system: AdipoR1 and AdipoR2 in HepG2 cells; assay: RNA interference (AdipoR1/AdipoR2 siRNA) in PA induced HepG2: PPARα, PPARγ mRNA and protein; format: cell-based, human; conditions: PA induced HepG2, 200 μM JT003; in words
Protocol: AdipoR1 and AdipoR2 siRNA as well as mock siRNA were chemically synthesized (GenePharma, China) and transfected into 60–70% confluent HepG2 and LX2 cells using Lipofectamine 3000 (ThermoFisher Scientific, USA). Dilution of siRNA and Lipofectamine 3000 reagents as well as the transfection of cells were performed following the manufacturer’s protocol. For HepG2 cell model, 5E5 cells were plated in 6-well plates and transfected with 5 μL of 20 μM stock siRNA. At 48 h following transfection, the cells were processed for 0.25 mM PA and/or 200 μM JT003 treated for another 24 h. BSA was used as the negative control. […]
Liver total RNA was extracted by using Trizol reagent following the manufacture’s instruction (TransGen Biotech, China). The concentration of RNA was measured by Nanodrop 2000 (ThermoFisher Scientific, USA). cDNA was transcribed from 10ug total RNA with First Strand cDNA synthesis Super Mix (TransGen Biotech, China). […] Reference gene β-actin was used for data normalization. mRNA expression was analyzed with specific primers listed in Supplementary Table 2.
Total protein was isolated from cells or liver samples using RIPA lysis buffer (50.0 mM Tris-HCl (pH = 8.0), 150.0 mM NaCl, 0.02% NaN3, 0.1% SDS, 1% NP-40, 0.5% deoxysodium cholate, 1 mM EDTA, […]). The protein concentration was quantified with BCA kit (Pierce, ThermoFisher Scientific, USA). […]

For `CCC[C@H](NC(=O)[C@@H]1CCCN1)C(=O)N[C@@H](CC(C)C)C(=O)N[C@@H](Cc1ccc(O)cc1)C(=O)N[C@@H](Cc1ccc(O)cc1)C(=O)N[C@@H](Cc1ccccc1)C(=O)N[C@@H](C)C(N)=O` [JT003] (H-P[Nva]LYYFA-NH2), the “Fraction of peptide remaining, Supplementary Figure 5” value (“Fraction of peptide remaining” below) ([1]; time 0 (unit not given), replicate 1) was 0.9904, the “Fraction of peptide remaining” value ([1]; time 0 (unit not given), replicate 2) was 1.127 and the “Fraction of peptide remaining” value ([1]; time 0 (unit not given), replicate 3) was 0.9633. For the same molecule, the “Fraction of peptide remaining” value ([1]; time 1 (unit not given), replicate 2) was 0.7303, the “Fraction of peptide remaining” value ([1]; time 1 (unit not given), replicate 3) was 0.7063 and the “Fraction of peptide remaining” value ([1]; time 2 (unit not given), replicate 1) was 0.4963. The “Fraction of peptide remaining” value ([1]; time 2 (unit not given), replicate 2) was 0.5281, the “Fraction of peptide remaining” value ([1]; time 2 (unit not given), replicate 3) was 0.4921 and the “Fraction of peptide remaining” value ([1]; time 3 (unit not given), replicate 1) was 0.4291. For the same molecule, the “Fraction of peptide remaining” value ([1]; time 3 (unit not given), replicate 2) was 0.4706, the “Fraction of peptide remaining” value ([1]; time 3 (unit not given), replicate 3) was 0.4115 and the “Fraction of peptide remaining” value ([1]; time 4 (unit not given), replicate 1) was 0.3431. For the same molecule, the “Fraction of peptide remaining” value ([1]; time 4 (unit not given), replicate 2) was 0.3616, the “Fraction of peptide remaining” value ([1]; time 4 (unit not given), replicate 3) was 0.3877 and the “Fraction of peptide remaining” value ([1]; time 5 (unit not given), replicate 1) was 0.4378. For the same molecule, the “Fraction of peptide remaining” value ([1]; time 5 (unit not given), replicate 2) was 0.3169, the “Fraction of peptide remaining” value ([1]; time 5 (unit not given), replicate 3) was 0.3694 and the “Fraction of peptide remaining” value ([1]; time 6 (unit not given), replicate 1) was 0.3549. The “Fraction of peptide remaining” value ([1]; time 6 (unit not given), replicate 2) was 0.2659, the “Fraction of peptide remaining” value ([1]; time 6 (unit not given), replicate 3) was 0.2904 and the “Fraction of peptide remaining” value ([1]; time 8 (unit not given), replicate 2) was 0.272. The “Fraction of peptide remaining” value ([1]; time 8 (unit not given), replicate 3) was 0.2915, the “Fraction of peptide remaining” value ([1]; time 12 (unit not given), replicate 2) was 0.1256 and the “Fraction of peptide remaining” value ([1]; time 12 (unit not given), replicate 3) was 0.2003. The remaining at 12 h, 5 mM ([1]; mouse, 5 mM peptide, 37 °C, 12 h, triplicate, mean, read-out: retention rate after incubation in serum) was roughly 22%, the “HFD-induced increasing of fasting blood glucose and fasting serum insulin levels” value (HFD induced NASH mice [2]) was “decreased” and the “decrease in circulating adiponectin in the HFD group” value (HFD induced NASH mice [2]) was “reverted remarkably”. The “HFD-induced insulin resistance, oral glucose tolerance test” value (HFD induced NASH mice [3]) was “obviously ameliorated” and the “effect of AdipoR1 and/or AdipoR2 siRNA on JT003 mediated PPARα and PPARγ expression” value [4] was “blocked the JT003 effects on mediating PPARα and PPARγ expression”.
